Test results from EP4523699A1, “ANTI-INFLAMMATORY DERMATOLOGICAL COMPOSITION COMPRISING GLYCEROPHOSPHOINOSITOL, A LACTOFERRIN HYDROLYSATE AND A CANNABINOID, IN PARTICULAR FOR TREATING SEBORRHEIC DERMATITIS” (FB Dermo srl, priority 2023, dated 2025).
Where two headings read alike, the source gives them in different places.

Legend:
Assay type in all cases: cell-based, human
[1] = MTT assay, cytotoxicity test on HaCaT cells; conditions: human, hacat cells, percentage of untreated cells (NT), read-out: Cell viability
Protocol: (§1) Cells vitality is measured as absorbance after MTT treatment. Values are expressed as absorbance percentage over untreated (NT) cells; 1 mg/ml SDS is used as positive control; the boxes show the three highest non-toxic concentrations of each compound.
(§2) Cell lines of immortalized human keratinocyes (HaCaT cells) were grown at 37 °C, 5% CO2 in DMEM culture medium, added with 1% non-essential aminoacids and 10% FBS. The cells were plated in 96-wells multi-well plates at 10^4 cells/well, in 10% FBS -DMEM. The day after, the culture medium was removed and substituted with 100 µL of complete medium with 1% FBS; then, an MTT assay was carried out after treating cells with the single ingredients prepared in Example 1.
(§3) As positive control of toxicity, sodium dodecyl sulfate (SDS) was used, at the concentration of 1 mg/ml.
(§4) The cells were incubated for 24 hours at 37°C and 5% CO2.
(§5) At the end of each incubation, the reagent 3-(4,5-dimethylthiazol-2-yl)-2,5-diphenyltetrazolium bromide (MTT) was added to each well, at the final concentration of 0.45 mg/mL. The plates were then incubated for an additional 2 hours, at 37 °C and 5% CO2.
(§6) At the end of the incubation, the crystals of reduced MTT were solubilized by removing the medium and adding 100 µL of dimethyl sulfoxide (DMSO) to each well.
(§7) Finally, the absorbance at 595 nm of each sample was measured, using an Infinite M NANO+ (Tecan) plate reader.
(§8) The cell viability following treatment with the different substances was analyzed. Cell viability is expressed as percentage of absorbance at 595 nm of untreated cells (NT).

IL-6 = assay: ELISA of IL-6 production in TNFα-inflamed HaCaT cells; conditions: TNFα 20 ng/ml overnight, then 24 hours of treatment
Protocol: Cell lines of immortalized human keratinocytes (HaCaT cells) were grown at 37 °C, 5% CO2 in DMEM culture medium, added with 1% non-essential aminoacids and 10% FBS. The cells were plated in 48-wells multi-well plates at 5*10^4 cells/ml, in 10% FBS DMEM. The day after, the culture medium was removed and substituted with 500 µL of complete medium without FBS and at the same time an inflammatory process was induced by treatment with TNFα 20 ng/ml, maintained over/night. This stimulus induces an increase in production of these cytokines compared to controls not receiving TNFα.
An experimental group of untreated cells was included, as a negative control of inflammation.
The following day, the inflamed cells were treated with each ingredient prepared in Example 1, at the highest non-toxic concentrations identified in Example 2. • Cannabidiol (CBD): 0.031 (w/v) • GPI lysine (GPI): 0.31 (w/v) • lactoferrin hydrolysate (LAC): 1 (w/v). […]
The dosage of the pro-inflammatory cytokine IL-6 (interleukin 6) was performed on 100 µL of each of the stored aliquots, following the kit protocol provided by the manufacturer. […] The anti-inflammatory effect of the compounds and compositions testes is expressed as a percentage of interleukin's production, with respect to inflamed cells (TNFα-treated) not subjected to anti-inflammatory treatment.

HaCaT cells = assay: MTT assay, cytotoxicity test on HaCaT cells; conditions: 24 hours
Protocol: as §1, §2, §3, §4, §5, §6, §7, §8

| Compound | viability at 24 h ([1]; concentration 0.063 % w/v) [%] | viability at 24 h ([1]; concentrations from 0.031 to 0.004 % w/v) [%] | activity at 0.03 % (IL-6; Homo sapiens, 0.03% (w/v)) [%] | Cell viability (HaCaT cells; percentage of absorbance at 595 nm of untreated cells (NT), concentration 0.0313 % v/v) | Cell viability (HaCaT cells; percentage of untreated cells (NT), concentrations of 0.0156 - 0.001 % v/v) | IL-6 production (% vs TNFα) Mean (IL-6; 0.031% (v/v)) [% vs TNFα] |
| --- | --- | --- | --- | --- | --- | --- |
| C=C(C)[C@@H]1CCC(C)=C[C@H]1c1c(O)cc(CCCCC)cc1O [CBD, cannabidiol] | ~50 | ~80 | 99 | – | – | – |
| O=P(O)(OC[C@H](O)CO)OC1[C@H](O)[C@H](O)C(O)[C@H](O)[C@H]1O (stereo partly drawn) [GPI Lysine, glycerophosphoinositol] | – | – | – | Above 50% | around 80% | 96 |
